{"source": "ChEMBL document CHEMBL1132092", "about": "“Structure-activity relationship at the proximal phenyl group in a series of non-peptidyl N-type calcium channel antagonists” (Bioorg Med Chem Lett, 1999)", "target": "Voltage-dependent N-type calcium channel subunit alpha-1B (Homo sapiens, UniProt Q00975)", "sequence (Q00975 whole entry)": "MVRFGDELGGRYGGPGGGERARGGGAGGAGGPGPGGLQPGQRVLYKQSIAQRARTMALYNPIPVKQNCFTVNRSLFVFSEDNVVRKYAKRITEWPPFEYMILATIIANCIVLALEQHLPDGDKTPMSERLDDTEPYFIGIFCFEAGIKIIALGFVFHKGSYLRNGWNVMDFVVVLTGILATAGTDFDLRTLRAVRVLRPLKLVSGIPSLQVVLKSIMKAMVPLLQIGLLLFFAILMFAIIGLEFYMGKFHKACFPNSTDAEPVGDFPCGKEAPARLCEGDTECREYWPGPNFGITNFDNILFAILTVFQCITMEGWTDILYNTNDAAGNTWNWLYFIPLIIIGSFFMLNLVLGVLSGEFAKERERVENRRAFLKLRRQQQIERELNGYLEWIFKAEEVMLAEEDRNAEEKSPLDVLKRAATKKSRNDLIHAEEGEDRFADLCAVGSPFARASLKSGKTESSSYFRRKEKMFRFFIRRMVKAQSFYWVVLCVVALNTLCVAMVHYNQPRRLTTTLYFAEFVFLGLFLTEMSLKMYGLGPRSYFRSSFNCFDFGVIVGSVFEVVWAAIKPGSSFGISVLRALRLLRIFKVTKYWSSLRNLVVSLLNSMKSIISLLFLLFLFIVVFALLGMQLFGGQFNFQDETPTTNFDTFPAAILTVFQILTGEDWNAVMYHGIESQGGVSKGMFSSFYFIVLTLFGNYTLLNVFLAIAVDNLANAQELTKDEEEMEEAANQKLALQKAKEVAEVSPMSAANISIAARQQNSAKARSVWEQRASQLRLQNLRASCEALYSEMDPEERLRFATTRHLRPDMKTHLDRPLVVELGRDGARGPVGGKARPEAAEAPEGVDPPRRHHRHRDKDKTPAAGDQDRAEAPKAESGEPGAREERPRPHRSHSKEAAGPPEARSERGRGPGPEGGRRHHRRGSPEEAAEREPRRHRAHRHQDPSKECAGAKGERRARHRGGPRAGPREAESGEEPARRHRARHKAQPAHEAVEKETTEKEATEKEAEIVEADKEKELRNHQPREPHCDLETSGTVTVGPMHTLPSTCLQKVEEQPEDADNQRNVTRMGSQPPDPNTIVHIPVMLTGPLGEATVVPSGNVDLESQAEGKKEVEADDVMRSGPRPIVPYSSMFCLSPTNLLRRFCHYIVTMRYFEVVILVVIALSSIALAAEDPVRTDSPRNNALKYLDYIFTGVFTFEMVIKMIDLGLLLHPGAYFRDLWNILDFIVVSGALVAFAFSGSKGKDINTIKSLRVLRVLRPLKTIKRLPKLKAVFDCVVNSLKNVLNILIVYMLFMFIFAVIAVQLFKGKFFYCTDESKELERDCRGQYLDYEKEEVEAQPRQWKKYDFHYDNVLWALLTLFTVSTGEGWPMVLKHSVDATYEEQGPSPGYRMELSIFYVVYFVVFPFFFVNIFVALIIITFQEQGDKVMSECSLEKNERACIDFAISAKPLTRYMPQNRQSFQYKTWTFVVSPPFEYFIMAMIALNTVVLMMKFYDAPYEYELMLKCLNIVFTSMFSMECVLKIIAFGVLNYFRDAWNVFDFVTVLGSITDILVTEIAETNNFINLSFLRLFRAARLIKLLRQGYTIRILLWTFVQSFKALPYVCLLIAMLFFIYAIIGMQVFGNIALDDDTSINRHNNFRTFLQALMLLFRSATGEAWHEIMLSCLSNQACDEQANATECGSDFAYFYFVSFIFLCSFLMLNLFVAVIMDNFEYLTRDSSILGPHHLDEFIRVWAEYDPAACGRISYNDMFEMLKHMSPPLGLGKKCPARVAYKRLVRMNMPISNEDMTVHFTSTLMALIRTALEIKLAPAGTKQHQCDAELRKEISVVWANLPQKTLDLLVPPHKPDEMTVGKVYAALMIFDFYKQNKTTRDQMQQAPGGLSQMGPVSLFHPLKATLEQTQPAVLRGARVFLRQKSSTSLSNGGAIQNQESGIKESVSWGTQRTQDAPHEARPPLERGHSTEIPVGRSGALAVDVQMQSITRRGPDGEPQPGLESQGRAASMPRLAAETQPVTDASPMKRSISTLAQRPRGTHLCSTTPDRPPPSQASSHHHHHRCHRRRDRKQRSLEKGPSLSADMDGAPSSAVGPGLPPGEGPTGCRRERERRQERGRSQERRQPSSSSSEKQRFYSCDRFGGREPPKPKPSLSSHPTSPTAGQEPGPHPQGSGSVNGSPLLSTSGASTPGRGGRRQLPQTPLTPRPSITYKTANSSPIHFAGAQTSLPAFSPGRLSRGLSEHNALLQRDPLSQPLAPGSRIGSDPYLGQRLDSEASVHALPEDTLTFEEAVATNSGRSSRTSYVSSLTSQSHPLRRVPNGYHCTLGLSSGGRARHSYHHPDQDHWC", "assay": "Inhibition of N-type Voltage Sensitive Calcium Channel (VSCC) using IMR-32 assay", "assay_type": "functional", "data": [{"smiles": "CC(C)=CCN(c1ccc(OCc2ccccc2)cc1)C1CCN(C(=O)[C@H](CC(C)C)NC(=O)N2CCCCCC2)CC1", "values": [{"measurement": "IC50", "value": 340, "unit": "nM"}]}, {"smiles": "CC(C)=CCN(c1ccc(CCc2ccccc2)cc1)C1CCN(C(=O)[C@H](CC(C)C)NC(=O)N2CCCCCC2)CC1", "values": [{"measurement": "IC50", "value": 670, "unit": "nM"}]}, {"smiles": "CC(C)CCN(c1ccc(O)cc1)C1CCN(C(=O)[C@H](CC(C)C)NC(=O)N2CCCCCC2)CC1", "values": [{"measurement": "IC50", "value": 1100, "unit": "nM"}]}, {"smiles": "CC(C)CCN(c1ccc(OCc2ccccc2)cc1)C1CCN(C(=O)[C@H](CC(C)C)NC(=O)N2CCCCCC2)CC1", "values": [{"measurement": "IC50", "value": 190, "unit": "nM"}]}, {"smiles": "CC(C)CCN(c1ccc(NCc2cnc[nH]2)cc1)C1CCN(C(=O)[C@H](CC(C)C)NC(=O)N2CCCCCC2)CC1", "values": [{"measurement": "IC50", "value": 120000, "unit": "nM"}]}, {"smiles": "CC(C)=CCN(c1ccccc1)C1CCN(C(=O)[C@H](CC(C)C)NC(=O)N2CCCCCC2)CC1", "values": [{"measurement": "IC50", "value": 1000, "unit": "nM"}]}]}
